The structures appear in SMILES notation.

The compound `CCOC(=O)c1sc(N2CCNC2=O)nc1C(F)(F)F` [Example 3.2, ethyl 2-(2-oxoimidazolidin-1-yl)-4-(trifluoromethyl)thiazole-5-carboxylate] gave a melting point of 185 to 187 °C.
Then `CCCCCN1CCN(c2nc(C)c(C(=O)NCc3cccnc3)s2)C1=O` [Example 9.42, 4-methyl-2-(2-oxo-3-pentylimidazolidin-1-yl)-N-(pyridin-3-ylmethyl)thiazole-5-carboxamide], with 102 to 103 °C.
Then `Cc1nc(N2CCN(Cc3ccc(OC(F)(F)F)cc3)C2=O)sc1C(=O)Nc1ccccc1` [Example 9.30, 4-methyl-2-(2-oxo-3-(4-(trifluoromethoxy)benzyl)imidazolidin-1-yl)-N-phenylthiazole-5-carboxamide], with 187 to 188 °C.
Regarding `Cc1nc(N2CCN(CC3CC3)C2=O)sc1C(=O)NCc1ccccc1` [Example 9.14, N-benzyl-2-(3-(cyclopropylmethyl)-2-oxoimidazolidin-1-yl)-4-methylthiazole-5-carboxamide], the melting point fell in the range of 142 to 143 °C.
The same measure for `COC(=O)c1cnc(N2CCN(CC3CC3)C2=O)s1` [Example 24, methyl 2-(3-(cyclopropylmethyl)-2-oxoimidazolidin-1-yl)thiazole-5-carboxylate]: 124 to 126 °C; for `Cc1nc(N2CCN(Cc3ccccc3)/C2=N\C#N)sc1C(=O)NCc1ccccc1` [Example 27, N-benzyl-2-(3-benzyl-2-(cyanoimino)imidazolidin-1-yl)-4-methylthiazole-5-carboxamide]: 226 to 228 °C; for `Cc1nc(-n2cnn(Cc3ccc(F)cc3)c2=O)sc1C(=O)NCc1cc[nH]n1` [Example 21.9, N-((1H-pyrazol-3-yl)methyl)-2-(1-(4-fluorobenzyl)-5-oxo-1H-1,2,4-triazol-4(5H)-yl)-4-methylthiazole-5-carboxamide]: 178 to 179 °C.
For the compound `Cc1nc(N2CCN(CCC3CC3)C2=O)sc1C(=O)NCc1ccccc1` [Example 9.17, N-benzyl-2-(3-(2-cyclopropylethyl)-2-oxoimidazolidin-1-yl)-4-methylthiazole-5-carboxamide], the melting point lay in the range of 137 to 138 °C.
Then `Cc1nc(N2CCN(CCC3CC3)C2=O)sc1C(=O)NCc1cccnc1` [Example 9.26, 2-(3-(2-cyclopropylethyl)-2-oxoimidazolidin-1-yl)-4-methyl-N-(pyridin-3-ylmethyl)thiazole-5-carboxamide], with 146 to 147 °C; and `Cc1nc(N2CCN(Cc3cccc(C(F)(F)F)c3)C2=O)sc1C(=O)NCc1cccnc1` [Example 9.43, 4-methyl-2-(2-oxo-3-(3-(trifluoromethyl)benzyl)imidazolidin-1-yl)-N-(pyridin-3-ylmethyl)thiazole-5-carboxamide], with 175 to 176 °C.
The same measure for `Cc1nc(N2CCN(Cc3ccccc3)C2=O)sc1C(=O)NCc1cccc(Cl)c1` [Example 9.6, 2-(3-benzyl-2-oxoimidazolidin-1-yl)-N-(3-chlorobenzyl)-4-methylthiazole-5-carboxamide]: 178 to 179 °C.
Then `Cc1nc(-n2cnn(CCNc3ccc(F)cc3)c2=O)sc1C(=O)NCc1cccnc1` [Example 47.1, 2-(1-(2-(4-fluorophenylamino)ethyl)-5-oxo-1H-1,2,4-triazol-4(5H)-yl)-4-methyl-N-(pyridin-3-ylmethyl)thiazole-5-carboxamide], with 163 to 164 °C; and `Cc1nc(N2C(=O)CN(c3ccc(F)cc3)C2=O)sc1C(=O)NCc1ccccc1` [Example 2, N-benzyl-2-(3-(4-fluorophenyl)-2,5-dioxoimidazolidin-1-yl)-4-methylthiazole-5-carboxamide], with 217 to 219 °C.
`Cc1cc(N2CCN(Cc3ccc(F)cc3)C2=O)sc1C(=O)NCc1cccs1` [Example 55.5, 5-(3-(4-fluorobenzyl)-2-oxoimidazolidin-1-yl)-3-methyl-N-(thiophen-2-ylmethyl)thiophene-2-carboxamide] gave a melting point of 128 to 131 °C.

These data come from patent US8293768B2, “Organic compounds” (Novartis AG, priority 2006, dated 2012).
